Reference: US9522928B2, “Mannosylated compounds useful for the prevention and the treatment of infectious diseases” (UNIVERSITE DE STRASBOURG, priority 2011, dated 2016)

Tested on: DCs
Experiment: Confocal microscopy of Alexa633-labeled TriManC24 in DCs
Assay type: cell-based, human
Conditions: Alexa Fluor 633 labeled compound, 100 μM, 10 min at 37° C.
Method: Human DCs (1×10^5 in 100 μl of RPMI medium) were exposed to Alexa633-labeled TriManC24 (100 μM final) for 10 min at 37° C. When indicated, transferrin-Alexa488 (Invitrogen) was also added for 10 min at 37° C. Cells were then washed and fixed with 4% paraformaldehyde for 15 min at room temperature. Nuclei were labeled with DAPI (1 μg/ml final) for 5 min. Slides were mounted using Prolong-Antifade (Molecular Probes). Samples were imaged with a confocal microscope (Zeiss LSM 700) and images analyzed with Adobe Photoshop.
To gain further insight into the interactions of TriManC24 with DC-SIGN expressed by DCs, a fluorescence-labeled TriManC24 was prepared by connecting Alexa Fluor 633 to hydroxyl groups of the mannose units. DCs were exposed to the labeled TriManC24 and visualized by confocal fluorescence microscopy.

CCCCCCCCCCCCCCCCCCCCCCCCC(=O)NC(COCCC(=O)NCCOCCOCCOCCOC1OC(CO)C(O)C(O)C1O)(COCCC(=O)NCCOCCOCCOCCOC1OC(CO)C(O)C(O)C1O)COCCC(=O)NCCOCCOCCOCCOC1OC(CO)C(O)C(O)C1O (stereo not shown) [TriManC24]
cell binding and internalization (in words): binds to the cell membrane and can be internalized by DCs via clathrin -mediated endocytosis
